Laboratory results taken from paper PMC12030706, “Novel ^177Lu-Labeled [Thz^14]Bombesin(6–14) Derivatives with Low Pancreas Accumulation for Targeting Gastrin-Releasing Peptide Receptor-Expressing Cancer” (Pharmaceuticals, 2025).

Key:
[1] = Ex vivo biodistribution in PC-3 tumor-bearing mice; settings: mouse; for tissue uptake at 24 h: 24 h post-injection; for tissue uptake at 120 h: 120 h post-injection; for tissue uptake at 4 h: 4 h post-injection; for tissue uptake at 72 h: 72 h post-injection
Method: SPECT/CT imaging experiments were performed using an MILabs (Houten, The Netherlands) U-SPECT-II/CT scanner with a custom-made ultra-high-sensitivity big mouse collimator (2 mm pinhole size) following previously reported procedures. […] Male NOD.Cg-Rag1^tm1Mom Il2rg^tm1Wjl/SzJ (NRG) mice were used in these experiments because of their immunodeficient characteristics and excellent radiation tolerance. Mice were anaesthetized and subcutaneously implanted with 5 × 10^6 PC-3 prostate cancer cells (100 µL; 1:1 PBS/Matrigel) behind the left shoulder. SPECT/CT imaging and biodistribution studies were performed once the tumors reached a diameter of 5–8 mm, typically after approximately 4 weeks of growth.
For ex vivo biodistribution studies, the mice were injected with ~2–6 MBq of the radioligand. […] Blocking study was conducted at 1 h post-injection via co-injection of the radioligand with 100 μg of [D-Phe^6,Leu-NHEt^13,des-Met^14]Bombesin(6–14). Organs/tissues of interested were collected, weighed, and measured using an automatic gamma counter.

[2] = system: PC-3 tumor-bearing NRG mouse; assay: Longitudinal SPECT/CT imaging in PC-3 tumor-bearing mice; assay type: in vivo, mice (NRG); settings: SPECT/CT images
Method: The PC-3 tumor-bearing mice were sedated (2.5% isoflurane in O2) and injected with ^177Lu-labeled ligands (15–32 MBq) through a lateral caudal tail vein. […] At each time point, a 5 min CT scan was obtained using 615 μA and 60 kV parameters for localization and attenuation, followed by 2 × 30 min static SPECT scans acquired in list mode with an energy window centered around 208 keV. The MILabs U-SPECT II reconstruction software (version 8.00) was used to reconstruct data, and the images were decay corrected to the time of injection with PMOD v 3.402 (PMOD Technologies GmbH, Fallanden, Switzerland).

[3] = LogD7.4 measurement, shake flask method; assay type: physicochemical; settings: n-octanol/DPBS pH 7.4, n = 3
Method: The logD7.4 values of all the ^177Lu-labeled GRPR-targeted ligands were measured using the shake flask method as previously reported. An aliquot (~2 MBq) of the radiolabeled product was added to a mixture of n-octanol (3 mL) and DPBS (3 mL, pH 7.4), followed by 1 min vortexing and 15 min centrifugation at 5000 rpm. Samples of the n-octanol (1 mL) and buffer (1 mL) layers were collected, and the activity was counted using a gamma counter. The logD7.4 values were calculated using the following equation: logD7.4=log10[countsn−octanolphase/countsbutterphase]

[4] = adrenal glands, Uptake in adrenal glands
[5] = large intestine, Uptake in large intestine
[6] = small intestine, Uptake in small intestine

- tissue uptake at 1 h ([1]; adrenal glands, 100 ug, Uptake in adrenal glands, 1 h blocked (co-injected with 100 µg [D-Phe6,Leu-NHEt13,des-Met14]Bombesin(6-14))): 0.54 ± 0.24 %ID/g
- tissue uptake at 24 h [1, 4]: 0.98 ± 0.18 %ID/g
- tissue uptake at 120 h [1, 4]: 0.25 ± 0.05 %ID/g
- tissue uptake at 1 h ([1]; blood, 100 ug, Uptake in blood, 1 h blocked (co-injected with 100 µg [D-Phe6,Leu-NHEt13,des-Met14]Bombesin(6-14))): 0.58 ± 0.16 %ID/g
- tissue uptake at 4 h ([1]; blood, Uptake in blood): 0.04 ± 0.01 %ID/g
- tissue uptake at 24 h ([1]; blood, Uptake in blood): 0.01 %ID/g
- tissue uptake at 1 h ([1]; bone, 100 ug, Uptake in bone, 1 h blocked (co-injected with 100 µg [D-Phe6,Leu-NHEt13,des-Met14]Bombesin(6-14))): 0.08 ± 0.02 %ID/g
- tissue uptake at 4 h ([1]; bone, Uptake in bone): 0.05 ± 0.03 %ID/g
- tissue uptake at 24 h ([1]; bone, Uptake in bone): 0.02 ± 0.01 %ID/g
- tissue uptake at 72 h ([1]; bone, Uptake in bone): 0.02 ± 0.01 %ID/g
- tissue uptake at 120 h ([1]; bone, Uptake in bone): 0.01 %ID/g
- tissue uptake at 1 h ([1]; brain, 100 ug, Uptake in brain, 1 h blocked (co-injected with 100 µg [D-Phe6,Leu-NHEt13,des-Met14]Bombesin(6-14))): 0.02 %ID/g
- tissue uptake at 1 h ([1]; fat, 100 ug, Uptake in fat, 1 h blocked (co-injected with 100 µg [D-Phe6,Leu-NHEt13,des-Met14]Bombesin(6-14))): 0.07 ± 0.02 %ID/g
- tissue uptake at 1 h ([1]; fat, Uptake in fat, 1 h post-injection): 0.07 ± 0.02 %ID/g
- tissue uptake at 4 h ([1]; fat, Uptake in fat): 0.01 %ID/g
- tissue uptake at 24 h ([1]; fat, Uptake in fat): 0.01 %ID/g
- tissue uptake at 1 h ([1]; heart, 100 ug, Uptake in heart, 1 h blocked (co-injected with 100 µg [D-Phe6,Leu-NHEt13,des-Met14]Bombesin(6-14))): 0.2 ± 0.06 %ID/g
- tissue uptake at 1 h ([1]; heart, Uptake in heart, 1 h post-injection): 0.22 ± 0.01 %ID/g
- tissue uptake at 72 h ([1]; heart, Uptake in heart): 0.02 %ID/g
- tissue uptake at 120 h ([1]; heart, Uptake in heart): 0.01 %ID/g
- tissue uptake at 1 h ([1]; kidneys, 100 ug, Uptake in kidneys, 1 h blocked (co-injected with 100 µg [D-Phe6,Leu-NHEt13,des-Met14]Bombesin(6-14))): 3.56 ± 0.77 %ID/g
- tissue uptake at 1 h ([1]; kidneys, Uptake in kidneys, 1 h post-injection): 3.77 ± 0.58 %ID/g
- tissue uptake at 4 h ([1]; kidneys, Uptake in kidneys): 2.67 ± 0.49 %ID/g
- tissue uptake at 24 h ([1]; kidneys, Uptake in kidneys): 1.46 ± 0.42 %ID/g
- tissue uptake at 72 h ([1]; kidneys, Uptake in kidneys): < 1 %ID/g
- tissue uptake at 120 h ([1]; kidneys, Uptake in kidneys): 0.2 ± 0.02 %ID/g
- tissue uptake at 1 h ([1]; large intestine, Uptake in large intestine, 1 h post-injection): 1 ± 0.15 %ID/g
- tissue uptake at 4 h [1, 5]: 1.15 ± 0.38 %ID/g
- tissue uptake at 24 h [1, 5]: 0.44 ± 0.11 %ID/g
- tissue uptake at 1 h ([1]; liver, 100 ug, Uptake in liver, 1 h blocked (co-injected with 100 µg [D-Phe6,Leu-NHEt13,des-Met14]Bombesin(6-14))): 0.26 ± 0.05 %ID/g
- tissue uptake at 24 h ([1]; liver, Uptake in liver): 0.13 ± 0.04 %ID/g
- tissue uptake at 72 h ([1]; liver, Uptake in liver): 0.07 ± 0.01 %ID/g
- tissue uptake at 120 h ([1]; liver, Uptake in liver): 0.04 ± 0.01 %ID/g
- tissue uptake at 24 h ([1]; lungs, Uptake in lungs): 0.07 ± 0.03 %ID/g
- tissue uptake at 1 h ([1]; muscle, Uptake in muscle, 1 h post-injection): 0.15 ± 0.02 %ID/g
- tissue uptake at 24 h ([1]; muscle, Uptake in muscle): 0.01 %ID/g
- tissue uptake at 72 h ([1]; muscle, Uptake in muscle): 0.01 %ID/g
- tissue uptake at 1 h ([1]; pancreas, 100 ug, Uptake in pancreas, 1 h blocked (co-injected with 100 µg [D-Phe6,Leu-NHEt13,des-Met14]Bombesin(6-14))): 2.71 ± 0.76 %ID/g
- tissue uptake at 1 h ([1]; pancreas, Uptake in pancreas, 1 h post-injection): 11.1 ± 1.37 %ID/g
- tissue uptake at 4 h ([1]; pancreas, Uptake in pancreas): 4.91 ± 0.63 %ID/g
- tissue uptake at 24 h ([1]; pancreas, Uptake in pancreas): 3.1 ± 0.48 %ID/g
- tissue uptake at 120 h ([1]; pancreas, Uptake in pancreas): 0.34 ± 0.04 %ID/g
- tissue uptake at 1 h ([1]; small intestine, 100 ug, Uptake in small intestine, 1 h blocked (co-injected with 100 µg [D-Phe6,Leu-NHEt13,des-Met14]Bombesin(6-14))): 0.49 ± 0.14 %ID/g
- tissue uptake at 1 h ([1]; small intestine, Uptake in small intestine, 1 h post-injection): 2.01 ± 0.13 %ID/g
- tissue uptake at 4 h [1, 6]: 0.56 ± 0.2 %ID/g
- tissue uptake at 24 h [1, 6]: 0.3 ± 0.1 %ID/g
- tissue uptake at 1 h ([1]; spleen, 100 ug, Uptake in spleen, 1 h blocked (co-injected with 100 µg [D-Phe6,Leu-NHEt13,des-Met14]Bombesin(6-14))): 0.21 ± 0.05 %ID/g
- tissue uptake at 1 h ([1]; spleen, Uptake in spleen, 1 h post-injection): 0.28 ± 0.05 %ID/g
- tissue uptake at 4 h ([1]; spleen, Uptake in spleen): 0.15 ± 0.03 %ID/g
- tissue uptake at 72 h ([1]; spleen, Uptake in spleen): 0.1 ± 0.02 %ID/g
- tissue uptake at 120 h ([1]; spleen, Uptake in spleen): 0.05 ± 0.01 %ID/g
- tissue uptake at 1 h ([1]; stomach, 100 ug, Uptake in stomach, 1 h blocked (co-injected with 100 µg [D-Phe6,Leu-NHEt13,des-Met14]Bombesin(6-14))): 0.17 ± 0.1 %ID/g
- tissue uptake at 1 h ([1]; stomach, Uptake in stomach, 1 h post-injection): 0.99 ± 0.21 %ID/g
- tissue uptake at 4 h ([1]; stomach, Uptake in stomach): 0.43 ± 0.16 %ID/g
- tissue uptake at 24 h ([1]; stomach, Uptake in stomach): 0.17 ± 0.07 %ID/g
- tissue uptake at 72 h ([1]; stomach, Uptake in stomach): 0.08 ± 0.02 %ID/g
- tissue uptake at 120 h ([1]; stomach, Uptake in stomach): 0.04 ± 0.02 %ID/g
- tissue uptake at 1 h ([1]; testes, 100 ug, Uptake in testes, 1 h blocked (co-injected with 100 µg [D-Phe6,Leu-NHEt13,des-Met14]Bombesin(6-14))): 0.3 ± 0.16 %ID/g
- tissue uptake at 24 h ([1]; testes, Uptake in testes): 0.02 ± 0.01 %ID/g
- tissue uptake at 72 h ([1]; testes, Uptake in testes): 0.02 %ID/g
- tissue uptake at 120 h ([1]; testes, Uptake in testes): 0.01 %ID/g
- excretion pathway [2]: excreted mainly via the renal pathway
- logD [3]: -2.76 ± 0.1
Structure (SMILES): CC(C)C[C@H](NC(=O)[C@H](Cc1cnc[nH]1)N(C)C(=O)CNC(=O)[C@@H](NC(=O)[C@H](C)NC(=O)[C@H](Cc1c[nH]c2ccccc12)NC(=O)[C@H](CCC(N)=O)NC(=O)[C@@H](Cc1ccccc1)NC(=O)CN1CCC(NC(=O)CN2CCN(CC(=O)O)CCN(CC(=O)O)CCN(CC(=O)O)CC2)CC1)C(C)(C)C)C(=O)N1CSC[C@H]1C(N)=O [[^177Lu]Lu-LW01110, metal not drawn]
